Target: T1, human RORγ-LBD (Homo sapiens, UniProt P51449)
T1 construct: made in house; host or cells: E. coli (BL-21)
T1 sequence (P51449 262-518): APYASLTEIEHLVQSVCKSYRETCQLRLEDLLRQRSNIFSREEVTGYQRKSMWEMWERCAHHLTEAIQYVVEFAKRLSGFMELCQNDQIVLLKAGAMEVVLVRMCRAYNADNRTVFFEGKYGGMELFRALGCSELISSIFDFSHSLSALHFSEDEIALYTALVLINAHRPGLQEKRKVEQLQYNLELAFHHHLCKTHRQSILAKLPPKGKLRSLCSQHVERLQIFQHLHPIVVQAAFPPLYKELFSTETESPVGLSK
Experiment: ROR gamma coactivator peptide recruitment Alphascreen assay (RORγ-LBD binding to GRIP1 coactivator peptide)
Assay type: biochemical
Details: 5 nM human RORγ-LBD, 30 nM 7-β-hydroxycholesterol, 50 nM biotinylated GRIP1 coactivator peptide, overnight incubation at room temperature; read-out: result (pIC50, RORγ coactivator peptide recruitment Alphascreen assay) (converted)
From the text: Alphascreen™ is a bead-based amplified homogenous luminescent proximity assay that can be used for measuring the effect of compounds on protein-protein interactions. When biological interactions bring donor and acceptor beads into close proximity, reactive oxygen, generated upon laser excitation of the donor beads, initiates a luminescence/fluorescence cascade in the acceptor beads that leads to a highly amplified signal that can be measured as light in the 520-620 nm range. When the acceptor and donor beads are not in proximity, the reactive oxygen decays and only a very low background signal is generated.
An in vitro assay to assess inhibition of RORγ binding to the coactivator GRIP1 was established using Alphascreen™ technology. The interaction between nuclear receptors (NR) and coactivator proteins is a key step in signal transduction from the receptor to the transcriptional machinery and can be measured in vitro using only the ligand binding domain of the nuclear receptor and a peptide containing a coactivator protein LXXLL nuclear receptor binding motif
For the RORγ construct used in the coactivator recruitment assay, nucleotides corresponding to the ligand binding domain (LBD) of wild type human RORγ (amino acids 262-518 of Genbank Accession No. NM_005060.3) were cloned into the pET24 expression vector (Novagen), downstream of in-frame N-terminal 6×His and Flag tag sequences. Recombinant 6×His:Flag-tagged human RORγ-LBD protein was expressed in E. coli (BL-21) and purified by affinity chromatography on a nickel Sepharose column, followed by anion exchange chromatography.
A 4× assay mixture of 6×His:Flag-tagged human RORγ-LBD with the agonist ligand 7-β-hydroxycholesterol was prepared in assay buffer (50 mM HEPES pH 7.4, BSA 0.05%, 150 mM NaCl, 5 mM MgCl2, 1 mM DTT, 0.01% Tween-20). For control wells a 4× mixture of 6×His:Flag-tagged human ROR gamma LBD alone was also prepared.
A 4× stock of biotinylated coactivator peptide containing the LXXLL motif from GRIP1 (Biotin-[…]) was prepared in assay buffer.
A 4×detection mixture of nickel chelate Alphascreen™ acceptor beads (PerkinElmer) and streptavidin Alphascreen™ donor beads (PerkinElmer) was prepared in assay buffer.
Compounds to be tested were arranged in a pre-dose 384-well mother plate serially diluted 1 in 2 over 22 columns, in 100% DMSO, at 40× the final test concentration, from a high concentration of 4 mM. DMSO with no compound was placed in control columns. The compounds were robotically dispensed directly into assay plates containing assay buffer to a 4× final test concentration.
Following compound addition, the 6×His:Flag-tagged human RORγ-LBD plus 7-β-hydroxycholesterol assay mixture, biotinylated coactivator peptide and detection mixture were added. Final assay conditions were 5 nM 6×His:Flag-tagged human RORγ-LBD, 30 nM 7-β-hydroxycholesterol, 50 nM biotinylated coactivator peptide, 2.5 ug/ml nickel acceptor beads and 10 ug/ml streptavidin donor beads. The final concentration of DMSO in the assay was 2.5%.
After overnight incubation at room temperature plates were read on and Envision™ plate reader (PerkinElmer).
Data was plotted and pIC50 values were calculated using the Genedata Screener™ data analysis suite (Genedata).

IC50 | Structure (SMILES)
1.91 nM | Cc1cc(Cl)c(CCN(CC2CCCCC2)C(=O)c2cnn([C@H]3CC[C@](C)(C(=O)O)CC3)c2C(F)(F)F)c(Cl)c1 [Example 514, trans-4-(4-((cyclohexylmethyl)(2-(2,6-dichloro-4-methylphenyl)ethyl)carbamoyl)-5-(trifluoromethyl)-1H-pyrazol-1-yl)-1-methylcyclohexanecarboxylic acid]
4.68 nM | Cc1cc(Cl)c(CCN(CC(C)(C)C)C(=O)c2cnn([C@H]3CC[C@](C)(C(=O)O)CC3)c2C(F)(F)F)c(Cl)c1 [Example 515, trans-4-(4-((2-(2,6-dichloro-4-methylphenyl)ethyl)(2,2-dimethylpropyl)carbamoyl)-5-(trifluoromethyl)-1H-pyrazol-1-yl)-1-methylcyclohexanecarboxylic acid]
25.1 nM | Cc1cc(Cl)c(C(=O)CN(CC(C)(C)C)C(=O)c2cnn([C@H]3CC[C@H](C(=O)O)CC3)c2C(F)(F)F)c(Cl)c1 [Example 517, trans-4-(4-((2-(2,6-dichloro-4-methylphenyl)-2-oxoethyl)(2,2-dimethylpropyl)carbamoyl)-5-(trifluoromethyl)-1H-pyrazol-1-yl)cyclohexanecarboxylic acid]
8.71 nM | CC(C)(C)CN(CCc1c(Cl)cccc1Cl)C(=O)c1cnn([C@H]2CC[C@H](C(=O)O)CC2)c1C(F)(F)F [Example 523, trans-4-(4-((2-(2,6-dichlorophenyl)ethyl)(2,2-dimethylpropyl)carbamoyl)-5-(trifluoromethyl)-1H-pyrazol-1-yl)cyclohexanecarboxylic acid]
77.6 nM | CC(C)(C)CN(C[C@H](O)c1c(Cl)cccc1Cl)C(=O)c1cnn([C@H]2CC[C@H](C(=O)O)CC2)c1C(F)(F)F [Example 524, trans-4-(4-(((2R)-2-(2,6-dichlorophenyl)-2-hydroxyethyl)(2,2-dimethylpropyl)carbamoyl)-5-(trifluoromethyl)-1H-pyrazol-1-yl)cyclohexanecarboxylic acid]
51.3 nM | CO[C@H](CN(CC(C)(C)C)C(=O)c1cnn([C@H]2CC[C@H](C(=O)O)CC2)c1C(F)(F)F)c1c(Cl)cc(C)cc1Cl [Example 530, trans-4-(4-(((2S)-2-(2,6-dichloro-4-methylphenyl)-2-methoxyethyl)(2,2-dimethylpropyl)carbamoyl)-5-(trifluoromethyl)-1H-pyrazol-1-yl)cyclohexanecarboxylic acid]
1070 nM | CO[C@@H](CN(CC(C)(C)C)C(=O)c1cnn([C@H]2CC[C@H](C(=O)O)CC2)c1C(F)(F)F)c1c(Cl)cc(C)cc1Cl [Example 531, trans-4-(4-(((2R)-2-(2,6-dichloro-4-methylphenyl)-2-methoxyethyl)(2,2-dimethylpropyl)carbamoyl)-5-(trifluoromethyl)-1H-pyrazol-1-yl)cyclohexanecarboxylic acid]
7.41 nM | Cc1cc(Cl)c(C(=O)CN(CC2CCC(C)(C)CC2)C(=O)c2cnn([C@H]3CC[C@](C)(C(=O)O)CC3)c2C(F)(F)F)c(Cl)c1 [Example 532, trans-4-(4-((2-(2,6-dichloro-4-methylphenyl)-2-oxoethyl)((4,4-dimethylcyclohexyl)methyl)carbamoyl)-5-(trifluoromethyl)-1H-pyrazol-1-yl)-1-methylcyclohexanecarboxylic acid]
1.48 nM | Cc1cc(Cl)c(C(=O)CN(CC2CCCCC2)C(=O)c2cnn([C@H]3CC[C@](C)(C(=O)O)CC3)c2C(F)(F)F)c(Cl)c1 [Example 533, trans-4-(4-((cyclohexylmethyl)(2-(2,6-dichloro-4-methylphenyl)-2-oxoethyl)carbamoyl)-5-(trifluoromethyl)-1H-pyrazol-1-yl)-1-methylcyclohexanecarboxylic acid]

Second part, the compound before the results:

Structure (SMILES) | IC50
Cc1[nH]c2ccccc2c1CCN(Cc1ccc(Cl)cc1)C(=O)c1cnn([C@H]2CC[C@H](C(=O)O)CC2)c1C(F)(F)F [Example 513, trans-4-(4-((4-chlorobenzyl)(2-(2-methyl-1H-indol-3-yl)ethyl)carbamoyl)-5-(trifluoromethyl)-1H-pyrazol-1-yl)cyclohexanecarboxylic acid] | 33.1 nM
Cc1cc(Cl)c(C(=O)CN(CC2CCC3(CC2)CC3)C(=O)c2cnn([C@H]3CC[C@H](C(=O)O)CC3)c2C(F)(F)F)c(Cl)c1 [Example 518, trans-4-(4-((2-(2,6-dichloro-4-methylphenyl)-2-oxoethyl)(spiro[2.5]oct-6-ylmethyl)carbamoyl)-5-(trifluoromethyl)-1H-pyrazol-1-yl)cyclohexanecarboxylic acid] | 2.63 nM
Cc1cc(Cl)c(C(=O)CN(CC2(C)CCCCC2)C(=O)c2cnn([C@H]3CC[C@H](C(=O)O)CC3)c2C(F)(F)F)c(Cl)c1 [Example 519, trans-4-(4-((2-(2,6-dichloro-4-methylphenyl)-2-oxoethyl)((1-methylcyclohexyl)methyl)carbamoyl)-5-(trifluoromethyl)-1H-pyrazol-1-yl)cyclohexanecarboxylic acid] | 5.13 nM
Cc1cc(Cl)c(C(=O)CN(CC2CC(C)(C)C2)C(=O)c2cnn([C@H]3CC[C@H](C(=O)O)CC3)c2C(F)(F)F)c(Cl)c1 [Example 520, trans-4-(4-((2-(2,6-dichloro-4-methylphenyl)-2-oxoethyl)((3,3-dimethylcyclobutyl)methyl)carbamoyl)-5-(trifluoromethyl)-1H-pyrazol-1-yl)cyclohexanecarboxylic acid] | 2.51 nM
CC1(C)CC(CN(CC(=O)c2c(Cl)cccc2Cl)C(=O)c2cnn([C@H]3CC[C@H](C(=O)O)CC3)c2C(F)(F)F)C1 [Example 521, trans-4-(4-((2-(2,6-dichlorophenyl)-2-oxoethyl)((3,3-dimethylcyclobutyl)methyl)carbamoyl) 5-(trifluoromethyl)-1H-pyrazol-1-yl)cyclohexanecarboxylic acid] | 1.86 nM
Cc1cc(Cl)c(C(=O)CN(Cc2cc(F)c(C(F)(F)F)c(F)c2)C(=O)c2cnn([C@H]3CC[C@H](C(=O)O)CC3)c2C(F)(F)F)c(Cl)c1 [Example 522, trans-4-(4-((2-(2,6-dichloro-4-methylphenyl)-2-oxoethyl)(3,5-difluoro-4-(trifluoromethyl)benzyl)carbamoyl)-5-(trifluoromethyl)-1H-pyrazol-1-yl)cyclohexanecarboxylic acid] | 2.09 nM
CC1(C)CCC(N(CC(=O)c2c(Cl)cccc2Cl)C(=O)c2cnn([C@H]3CC[C@H](C(=O)O)CC3)c2C(F)(F)F)CC1 [Example 525, trans-4-(4-((2-(2,6-dichlorophenyl)-2-oxoethyl)(4,4-dimethylcyclohexyl)carbamoyl)-5-(trifluoromethyl)-1H-pyrazol-1-yl)cyclohexanecarboxylic acid] | 5.89 nM
O=C(c1cnn([C@H]2CC[C@H](C(=O)O)CC2)c1C(F)(F)F)N(CCc1c(Cl)cccc1Cl)Cc1ccc(C(F)(F)F)cc1 [Example 526, trans-4-(4-((2-(2,6-dichlorophenyl)ethyl)(4-(trifluoromethyl)benzyl)carbamoyl)-5-(trifluoromethyl)-1H-pyrazol-1-yl)cyclohexanecarboxylic acid] | 5.89 nM
O=C(CN(Cc1ccc(C(F)(F)F)cc1)C(=O)c1cnn([C@H]2CC[C@H](C(=O)O)CC2)c1C(F)(F)F)c1c(Cl)cccc1Cl [Example 527, trans-4-(4-((2-(2,6-dichlorophenyl)-2-oxoethyl)(4-(trifluoromethyl)benzyl)carbamoyl)-5-(trifluoromethyl)-1H-pyrazol-1-yl)cyclohexanecarboxylic acid] | 8.32 nM
Cc1cc(Cl)c(C(=O)CN(Cc2ccc(C(F)(F)F)cc2)C(=O)c2cnn([C@H]3CC[C@H](C(=O)O)CC3)c2C(F)(F)F)c(Cl)c1 [Example 528, trans-4-(4-((2-(2,6-dichloro-4-methylphenyl)-2-oxoethyl)(4-(trifluoromethyl)benzyl)carbamoyl)-5-(trifluoromethyl)-1H-pyrazol-1-yl)cyclohexanecarboxylic acid] | 4.17 nM

From patent publication US9365522B2, “Pyrazole amide derivative” (AMGEN INC., priority 2015, dated 2016)
